Assay results: patent US11447466B2, “Substituted indole compounds useful as inhibitors of TLR7/8/9” (BRISTOL-MYERS SQUIBB COMPANY, priority 2017, dated 2022)

How the values were obtained:
Type in all cases: cell-based
human TLR8 = biological target: T1, human TLR8 (Homo sapiens, UniProt Q9NR97); test: TLR8 inhibition reporter assay (HEK-Blue SEAP reporter, R848 stimulation); conditions: HEK-Blue cells overexpressing human TLR8, SEAP reporter, R848 15.9 μM, 22 hour incubation
T1 construct: host or cells: HEK-Blue cells
T1 sequence (Q9NR97 27-1041): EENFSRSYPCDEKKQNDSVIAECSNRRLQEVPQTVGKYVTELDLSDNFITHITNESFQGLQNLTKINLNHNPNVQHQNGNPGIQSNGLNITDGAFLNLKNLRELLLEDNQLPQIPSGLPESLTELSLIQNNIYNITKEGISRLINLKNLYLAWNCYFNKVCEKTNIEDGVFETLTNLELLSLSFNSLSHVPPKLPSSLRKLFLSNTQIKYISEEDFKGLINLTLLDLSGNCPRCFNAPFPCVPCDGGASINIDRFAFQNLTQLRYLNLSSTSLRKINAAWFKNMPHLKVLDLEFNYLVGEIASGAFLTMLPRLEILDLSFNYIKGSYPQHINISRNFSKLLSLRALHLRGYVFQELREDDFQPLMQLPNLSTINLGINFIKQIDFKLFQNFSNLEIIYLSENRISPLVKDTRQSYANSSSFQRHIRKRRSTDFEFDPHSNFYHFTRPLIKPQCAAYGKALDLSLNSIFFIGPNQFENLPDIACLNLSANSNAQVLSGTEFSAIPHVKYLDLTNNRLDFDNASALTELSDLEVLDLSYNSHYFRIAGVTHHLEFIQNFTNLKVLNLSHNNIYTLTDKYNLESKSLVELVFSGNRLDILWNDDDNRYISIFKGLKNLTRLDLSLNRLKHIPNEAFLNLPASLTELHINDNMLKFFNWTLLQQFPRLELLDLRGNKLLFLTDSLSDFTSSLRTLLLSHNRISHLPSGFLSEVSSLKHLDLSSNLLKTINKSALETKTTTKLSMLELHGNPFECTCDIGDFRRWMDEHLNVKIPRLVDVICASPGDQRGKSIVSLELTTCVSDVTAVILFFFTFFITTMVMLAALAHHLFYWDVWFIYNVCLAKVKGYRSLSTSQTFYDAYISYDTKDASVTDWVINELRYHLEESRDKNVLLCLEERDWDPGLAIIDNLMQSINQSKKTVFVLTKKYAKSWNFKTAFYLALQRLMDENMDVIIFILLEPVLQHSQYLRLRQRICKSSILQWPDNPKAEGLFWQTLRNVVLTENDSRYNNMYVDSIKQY
How it was run: (§1)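 Dose–response from 0.05 nM to 50 μM was run in HEK-Blue human TLR7, TLR8 and TLR9 reporter cells. After 30 min at room temperature with compound, ligand was added (TLR7 gardiquimod 7.5 μM; TLR8 R848 15.9 μM; TLR9 ODN2006 5 nM) and SEAP measured next day, at 22 h.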

human TLR7 = biological target: T2, human TLR7 (Homo sapiens, UniProt Q9NYK1); test: TLR7 inhibition reporter assay (HEK-Blue SEAP reporter, gardiquimod stimulation); conditions: HEK-Blue cells overexpressing human TLR7, SEAP reporter, gardiquimod 7.5 μM, 22 hour incubation
T2 construct: host or cells: HEK-Blue cells
T2 sequence (Q9NYK1 27-1049): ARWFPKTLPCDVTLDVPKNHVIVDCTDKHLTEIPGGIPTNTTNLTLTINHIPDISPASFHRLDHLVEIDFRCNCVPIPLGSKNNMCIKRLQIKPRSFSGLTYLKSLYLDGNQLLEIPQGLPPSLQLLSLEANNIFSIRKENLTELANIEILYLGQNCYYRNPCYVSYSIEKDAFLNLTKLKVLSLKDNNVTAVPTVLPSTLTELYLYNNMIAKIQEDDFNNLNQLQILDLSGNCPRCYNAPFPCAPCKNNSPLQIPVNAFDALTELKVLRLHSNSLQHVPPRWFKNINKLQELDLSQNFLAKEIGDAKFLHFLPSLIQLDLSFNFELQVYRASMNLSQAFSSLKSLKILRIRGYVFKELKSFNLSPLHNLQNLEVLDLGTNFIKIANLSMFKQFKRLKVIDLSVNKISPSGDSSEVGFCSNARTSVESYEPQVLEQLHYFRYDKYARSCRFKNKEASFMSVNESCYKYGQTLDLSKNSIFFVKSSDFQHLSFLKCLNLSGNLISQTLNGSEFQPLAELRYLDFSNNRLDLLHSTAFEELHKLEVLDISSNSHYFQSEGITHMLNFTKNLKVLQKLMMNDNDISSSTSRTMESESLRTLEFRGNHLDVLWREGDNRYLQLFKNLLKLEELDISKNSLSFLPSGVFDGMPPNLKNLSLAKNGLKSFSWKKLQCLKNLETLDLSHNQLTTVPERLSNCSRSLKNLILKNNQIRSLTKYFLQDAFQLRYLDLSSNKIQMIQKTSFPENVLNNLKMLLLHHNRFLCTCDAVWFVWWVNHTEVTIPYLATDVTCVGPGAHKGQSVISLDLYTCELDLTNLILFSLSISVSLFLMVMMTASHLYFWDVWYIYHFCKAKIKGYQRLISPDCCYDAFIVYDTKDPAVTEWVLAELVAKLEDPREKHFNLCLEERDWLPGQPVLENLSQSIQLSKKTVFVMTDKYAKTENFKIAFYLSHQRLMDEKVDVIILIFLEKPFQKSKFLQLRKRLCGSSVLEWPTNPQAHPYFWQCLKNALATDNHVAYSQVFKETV
How it was run: as §1

human TLR9 = biological target: T3, human TLR9 (Homo sapiens, UniProt Q9NR96); test: TLR9 inhibition reporter assay (HEK-Blue SEAP reporter, ODN2006 stimulation); conditions: HEK-Blue cells overexpressing human TLR9, SEAP reporter, ODN2006 5 nM, 22 hour incubation
T3 construct: host or cells: HEK-Blue cells
T3 sequence (Q9NR96 26-1032): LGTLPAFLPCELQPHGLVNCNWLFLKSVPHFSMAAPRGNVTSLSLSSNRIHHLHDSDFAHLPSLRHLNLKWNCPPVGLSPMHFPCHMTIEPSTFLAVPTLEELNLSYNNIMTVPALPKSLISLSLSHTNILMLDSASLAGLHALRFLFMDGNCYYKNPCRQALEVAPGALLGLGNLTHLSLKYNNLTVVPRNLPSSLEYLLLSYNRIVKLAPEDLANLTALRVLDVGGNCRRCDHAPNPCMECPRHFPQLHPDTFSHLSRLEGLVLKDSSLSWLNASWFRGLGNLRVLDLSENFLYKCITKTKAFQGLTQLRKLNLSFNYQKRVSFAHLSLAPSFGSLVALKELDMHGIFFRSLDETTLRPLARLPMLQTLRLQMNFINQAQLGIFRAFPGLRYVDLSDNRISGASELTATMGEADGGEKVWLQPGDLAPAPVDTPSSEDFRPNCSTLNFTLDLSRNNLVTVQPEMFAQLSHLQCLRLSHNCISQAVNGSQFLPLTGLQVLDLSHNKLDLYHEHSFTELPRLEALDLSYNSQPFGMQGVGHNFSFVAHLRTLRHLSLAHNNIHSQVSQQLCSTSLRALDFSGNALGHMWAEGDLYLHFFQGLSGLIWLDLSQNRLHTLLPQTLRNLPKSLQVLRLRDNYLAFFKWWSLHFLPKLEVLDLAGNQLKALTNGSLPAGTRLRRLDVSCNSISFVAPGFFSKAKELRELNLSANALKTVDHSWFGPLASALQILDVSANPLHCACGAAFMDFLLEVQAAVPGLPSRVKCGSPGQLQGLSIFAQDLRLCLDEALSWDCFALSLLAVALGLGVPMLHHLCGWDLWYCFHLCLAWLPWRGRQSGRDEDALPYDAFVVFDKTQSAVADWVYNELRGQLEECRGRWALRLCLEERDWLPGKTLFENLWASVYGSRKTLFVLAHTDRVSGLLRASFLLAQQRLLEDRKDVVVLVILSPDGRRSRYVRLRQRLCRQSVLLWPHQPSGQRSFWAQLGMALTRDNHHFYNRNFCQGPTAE
How it was run: as §1

Row | IC50 (human TLR8) [nM] | IC50 (human TLR7) [nM] | IC50 (human TLR9) [nM] | SMILES
1 | 5.7 | 3 | 977 | COc1cc(-c2[nH]c3ccc(C4CCN(CC(=O)N(C)C)CC4)cc3c2C(C)C)cn(C)c1=O [Example 128, 2-(4-(3-isopropyl-2-(5-methoxy-1-methyl-6-oxo-1,6-dihydropyridin-3-yl)-1H-indol-5-yl)piperidin-1-yl)-N,N-dimethylacetamide]
2 | 5 | 2.6 | 4390 | Cc1c(-c2[nH]c3ccc(C4CCN(CCC(C)C)CC4)cc3c2C(C)C)cn(C)c(=O)c1Cl [Example 91, 3-chloro-5-(5-(1-isopentylpiperidin-4-yl)-3-isopropyl-1H-indol-2-yl)-1,4-dimethylpyridin-2(1H)-one]
3 | 54.9 | 66.1 | 17200 | COc1c(C)c(-c2[nH]c3ccc(C4CCN(C5COC5)CC4)cc3c2C(C)C)cn(C)c1=O [Example 215, 5-(3-isopropyl-5-(1-(oxetan-3-yl)piperidin-4-yl)-1H-indol-2-yl)-3-methoxy-1,4-dimethylpyridin-2(1H)-one]
4 | 10.7 | 5.1 | 5520 | Cc1c(-c2[nH]c3ccc(C4CCN(CCCC(F)(F)F)CC4)cc3c2C(C)C)cn(C)c(=O)c1Cl [Example 105, 3-chloro-5-(3-isopropyl-5-(1-(4,4,4-trifluorobutyl)piperidin-4-yl)-1H-indol-2-yl)-1,4-dimethylpyridin-2(1H)-one]
5 | 2.7 | 4.2 | 2660 | Cc1c(-c2[nH]c3ccc(C4CCN(CC5CCOC5)CC4)cc3c2C(C)C)cn(C)c(=O)c1Cl (stereo not drawn) [Example 252, 3-chloro-5-(3-isopropyl-5-(1-((tetrahydrofuran-3-yl)methyl)piperidin-4-yl)-1H-indol-2-yl)-1,4-dimethylpyridin-2(1H)-one]
6 | 24.1 | 10.8 | 1560 | Cc1cc(-c2[nH]c3ccc(C4CCN(C5CCOCC5)CC4)cc3c2C(C)C)cn(Cc2ccccc2)c1=O [Example 263, 1-benzyl-5-(3-isopropyl-5-(1-(tetrahydro-2H-pyran-4-yl)piperidin-4-yl)-1H-indol-2-yl)-3-methylpyridin-2(1H)-one]
7 | 158 | 18 | 1120 | CC(C)c1c(-c2cc(C(F)(F)F)c(=O)n(C)c2)[nH]c2ccc(C3CCNCC3)cc12 [Example 41, 5-(3-isopropyl-5-(piperidin-4-yl)-1H-indol-2-yl)-1-methyl-3-(trifluoromethyl)pyridin-2(1H)-one]
8 | 22.2 | 35.1 | 3170 | Cc1nc(-c2[nH]c3ccc(C4CCN(CC(C)(C)O)CC4)cc3c2C(C)C)cn(C)c1=O [Example 312, 5-(5-(1-(2-hydroxy-2-methylpropyl)piperidin-4-yl)-3-isopropyl-1H-indol-2-yl)-1,3-dimethylpyrazin-2(1H)-one]
9 | 81.2 | 9.6 | 1310 | Cc1cc(-c2[nH]c3ccc(C4CCNCC4)cc3c2C(C)C)cn(CC(C)C)c1=O [Example 36, 1-isobutyl-5-(3-isopropyl-5-(piperidin-4-yl)-1H-indol-2-yl)-3-methylpyridin-2(1H)-one]
10 | 18 | 34.3 | 17500 | CCn1cc(-c2[nH]c3ccc(C4CCN(C5COC5)CC4)cc3c2C(C)C)c(C)c(C)c1=O [Example 209, 1-ethyl-5-(3-isopropyl-5-(1-(oxetan-3-yl)piperidin-4-yl)-1H-indol-2-yl)-3,4-dimethylpyridin-2(1H)-one]
11 | 102 | 40.7 | ≥ 50000 | Cc1cc(-c2[nH]c3ccc(C4CCN(CC(=O)N5CCC(=O)N5)CC4)cc3c2C(C)C)cn(C)c1=O [Example 121, 5-(3-isopropyl-5-(1-(2-oxo-2-(3-oxopyrazolidin-1-yl)ethyl)piperidin-4-yl)-1H-indol-2-yl)-1,3-dimethylpyridin-2(1H)-one]
12 | 222 | 5.4 | 3480 | CC(C)c1c(-c2cc(-c3cccc(C(N)=O)c3)c(=O)n(C)c2)[nH]c2ccc(C3CCNCC3)cc12 [Example 58, 3-(5-(3-isopropyl-5-(piperidin-4-yl)-1H-indol-2-yl)-1-methyl-2-oxo-1,2-dihydropyridin-3-yl)benzamide]
13 | 28.7 | 272 | 16900 | Cc1c(-c2[nH]c3ccc(C4CCN(C5COC5)CC4)cc3c2C(C)C)nn(C)c(=O)c1C [Example 203, 6-(3-isopropyl-5-(1-(oxetan-3-yl)piperidin-4-yl)-1H-indol-2-yl)-2,4,5-trimethylpyridazin-3(2H)-one]
14 | 4.4 | 6.6 | 13400 | Cc1c(-c2[nH]c3ccc(C4CCN(CCS(C)(=O)=O)CC4)cc3c2C(C)C)cn(C)c(=O)c1Cl [Example 107, 3-chloro-5-(3-isopropyl-5-(1-(2-(methylsulfonyl)ethyl)piperidin-4-yl)-1H-indol-2-yl)-1,4-dimethylpyridin-2(1H)-one]
